{
  "source": "ChEMBL document CHEMBL5728921",
  "about": "“Pyridylpyridone compounds” (2022)",
  "target": "Phosphatidylinositol 3-kinase catalytic subunit type 3 (Homo sapiens, UniProt Q8NEB9)",
  "sequence (Q8NEB9 whole entry)": "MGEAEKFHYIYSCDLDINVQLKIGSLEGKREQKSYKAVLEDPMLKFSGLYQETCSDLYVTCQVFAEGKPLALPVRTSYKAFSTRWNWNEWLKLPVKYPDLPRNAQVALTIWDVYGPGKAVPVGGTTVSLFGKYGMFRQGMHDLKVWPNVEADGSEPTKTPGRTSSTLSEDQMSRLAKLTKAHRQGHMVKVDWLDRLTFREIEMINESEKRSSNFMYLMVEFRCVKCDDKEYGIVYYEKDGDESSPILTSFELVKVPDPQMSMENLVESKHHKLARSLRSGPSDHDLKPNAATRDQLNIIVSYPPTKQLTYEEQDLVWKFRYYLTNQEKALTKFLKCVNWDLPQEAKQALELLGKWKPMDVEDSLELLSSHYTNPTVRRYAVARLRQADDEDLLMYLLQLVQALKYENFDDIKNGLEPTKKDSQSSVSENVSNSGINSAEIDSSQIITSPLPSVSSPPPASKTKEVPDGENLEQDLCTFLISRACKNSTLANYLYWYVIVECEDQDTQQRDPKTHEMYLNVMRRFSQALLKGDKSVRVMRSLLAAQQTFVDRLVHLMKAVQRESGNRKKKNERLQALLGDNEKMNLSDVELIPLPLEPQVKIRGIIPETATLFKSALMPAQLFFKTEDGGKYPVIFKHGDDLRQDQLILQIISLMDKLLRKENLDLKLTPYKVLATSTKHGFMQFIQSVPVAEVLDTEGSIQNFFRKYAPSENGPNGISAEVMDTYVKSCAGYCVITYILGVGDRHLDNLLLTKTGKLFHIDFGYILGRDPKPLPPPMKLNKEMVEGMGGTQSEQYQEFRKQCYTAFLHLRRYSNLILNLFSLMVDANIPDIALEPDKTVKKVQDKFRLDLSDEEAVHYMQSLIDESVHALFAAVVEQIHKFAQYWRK",
  "test": "Biochemical Assay: Dilution series of compounds of the invention were prepared in DMSO at 100 times the final assay concentration (n1=n0/3 in 10 points). The compounds were further diluted to 4 times the assay concentration in assay buffer (Life technologies buffer Q, PV5125, diluted 5 times supplemented with 2 mM DTT and 2 mM MnCl2). 2.5 μl of the diluted compounds were added to a 384 well assay plate followed by 2.5 μl of 16.5 nM Vps34 enzyme (Life technologies, PV5126). Enzyme and compounds were pre-incubated at rt for 15 min. Then 5 μl of substrate mix containing 20 μM ATP (Life technologies, PV3227) and 200 μM PI:PS substrate (Life technologies, PV5122) in assay buffer was added to the wells containing compound and enzyme. Mixing was performed by pipetting several times. The reaction was incubated at room temperature for 1 h. Then 5 μl stop-detection mix, prepared as described in the Adapta kinase assay kit instructions (Life technologies, PV5099) containing Adapta Eu-anti-ADP antibody (2.3 nM), Alexa Fluor 647 ADP tracer (9 nM) and EDTA (30 mM) in TR-FRET buffer, was added to quench the reaction. Mixing was performed by pipetting several times. The assay plate was then incubated at room temperature for 30 min and read with Artemis micro plate reader. Percent inhibition of the compounds as compared to DMSO treated control samples was calculated.",
  "data": [
    {"molecule": "CC(=O)Nc1cc(-c2cc(-c3ccccc3Cl)[nH]c(=O)c2)ccn1", "values": [
      {"measurement": "IC50", "value": "< 5", "unit": "nM"}
    ]}
  ]
}
